Experimental findings from patent US20260077055A1, “COMPOSITIONS OF POLYPLEXES AND SAPONINS” (SAPREME TECHNOLOGIES B.V., priority 2022, published 2026) are described below.

For this assay, the system named is A2058 cancer cells. Briefly: pEGFP-N3 polyplex transfection of A2058 cells, light microscopy. The assay is classed as cell-based. The settings on record: 72 h; SO1861-EMCH or SO1861 = 40 nM supplemented to PAMAM G5-(PEG N3)3.5 polyplexes. The procedure:
Spectrophotometry: Concentrations were determined using either a Thermo Nanodrop 2000 spectrometer or Perkin Elmer Lambda 365 Spectrophotometer. DLS measurements: DLS measurements were performed on a Malvern Nano ZS (Malvern Instruments, U.K.), operating at 633 nm with a 173° scattering angle, at 25 or 37° C. DLS mean diameters were obtained from the intensity particle size distribution provided by Malvern Zetasizer Software. DLS histograms were obtained from the intensity particle size distributions. Zeta-potential: The zeta-potential values of the polyplexes were obtained by laser doppler anemometry (LDA), measuring the mean electrophoretic mobility (Malvern Zetasizer Nano ZS, Malvern Instruments, U.K.). Measurements were performed in 10 mM HEPES pH 7.1, 150 mM NaCl. TEM measurements: TEM measurements were performed on a JEOL JEM-1011 operated at 100 kV electron microscope, equipped with a camera S5 MegaView G2. […] Infrared Spectroscopy: FT-IR spectra were recorded on a Bruker Vertex 70v, equipped with a RockSolid interferometer, after preparing the samples (1-2 mg) as KBr pellets. […] NMR Spectroscopy: 1H NMR spectra were recorded on a 11.7 T Bruker DRX-500 spectrometer. […] Experiments were recorded acquiring 64-512 scans, with a pre-scan delay (d1) of 12 s, and an acquisition time (aq) of 4 s at 300 K. 13C NMR spectrum was recorder on a 9.39 T Varian Innova 400 spectrometer. […]

Consider `CC(=O)OC1C(C)OC(OC2C(C)OC(OC(=O)[C@]34CCC(C)(C)CC3C3=CCC5[C@@]6(C)CC[C@H](OC7OC(C(=O)O)C(O)C(OC8OCC(O)C(O)C8O)C7OC7OC(CO)C(O)C(O)C7O)[C@@](C)(/C=N/NC(=O)CCCCCN7C(=O)C=CC7=O)C6CC[C@@]5(C)[C@]3(C)C[C@H]4O)C(OC3OC(C)C(OC4OCC(O)C(OC5OC(CO)C(O)C(O)C5O)C4O)C(O)C3O)C2O)C(O)C1OC1OCC(O)C(O)C1O` (stereo partly shown) [SO1861-EMCH], for which the “pEGFP-N3 transfection (eGFP expression)” value is listed as “marginal transfection”.
